Each structure is given as a SMILES string.

Results on six compounds are retold here after patent US12473304B2, “Heterocyclic PAD4 inhibitors” (BRISTOL-MYERS SQUIBB COMPANY, priority 2020, dated 2025).

human PAD4 (hPAD4), sequence (Q9UM07 whole entry): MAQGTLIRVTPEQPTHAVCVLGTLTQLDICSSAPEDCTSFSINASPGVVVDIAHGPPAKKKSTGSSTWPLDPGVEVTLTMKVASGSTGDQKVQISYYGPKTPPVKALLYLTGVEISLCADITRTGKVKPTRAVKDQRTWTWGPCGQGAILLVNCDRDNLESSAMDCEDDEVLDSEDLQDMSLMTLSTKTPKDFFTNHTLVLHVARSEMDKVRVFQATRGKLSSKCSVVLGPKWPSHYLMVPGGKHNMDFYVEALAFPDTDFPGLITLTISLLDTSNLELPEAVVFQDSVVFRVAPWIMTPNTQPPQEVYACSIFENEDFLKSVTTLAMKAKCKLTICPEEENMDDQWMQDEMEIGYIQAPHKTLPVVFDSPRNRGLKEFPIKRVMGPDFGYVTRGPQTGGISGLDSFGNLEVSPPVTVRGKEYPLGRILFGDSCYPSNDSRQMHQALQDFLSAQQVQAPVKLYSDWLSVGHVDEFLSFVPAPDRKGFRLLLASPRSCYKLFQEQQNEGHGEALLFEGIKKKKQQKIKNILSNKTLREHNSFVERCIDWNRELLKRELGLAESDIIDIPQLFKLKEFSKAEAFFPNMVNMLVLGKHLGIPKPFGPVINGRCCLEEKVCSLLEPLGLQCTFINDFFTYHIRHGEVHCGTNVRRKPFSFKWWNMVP

The target in this assay is human PAD4 (hPAD4) (Homo sapiens (Human), UniProt Q9UM07). In words: RFMS Human PAD4 Functional Assay 1. Type of assay: biochemical. Conditions: RFMS assay 1; 5 nM hPAD4, 250 μM BAEE substrate, 50 μM calcium, 37° C. In outline:
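Citrullination product read by RapidFire triple-quad MRM against a modified-citrulline internal standard, after TCA stop and 30 min phenyl glyoxal step at 37 °C. Reaction: 250 μM BAEE, 5 nM human PAD4, 90 min at 37 °C, pH 7.5 HEPES buffer with 50 μM calcium and 5 μM TPEN, following 30 min compound–enzyme preincubation (max 50 μM).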
Regarding `Cc1c(-c2cc3ccnc(OCCn4ccnc4C)c3n2CC2CC2)nn2cc(C(=O)N3CCC[C@@H](N)C3)ccc12` [Example 612, (R)-(3-Aminopiperidin-1-yl)(2-(1-(cyclopropylmethyl)-7-(2-(2-methyl-1H-imidazol-1-yl)ethoxy)-1H-pyrrolo[2,3-c]pyridin-2-yl)-3-methylpyrazolo[1,5-a]pyridin-6-yl)methanone], the half-inhibitory concentration (IC50) was 2960 nM.
In the case of `Cc1c(-c2cc3ccnc(OCCn4cnnc4)c3n2CC2CC2)nn2cc(C(=O)N3C[C@H](N)C[C@@H](F)C3)ccc12` [Example 613, (2-(7-(2-(4H-1,2,4-Triazol-4-yl)ethoxy)-1-(cyclopropylmethyl)-1H-pyrrolo[2,3-c]pyridin-2-yl)-3-methylpyrazolo[1,5-a]pyridin-6-yl)((3R,5R)-3-amino-5-fluoropiperidin-1-yl)methanone] it was 250 nM.
Take `Cc1c(-c2cc3ccnc(OCCn4ccnc4)c3n2CC2CC2)nn2cc(C(=O)N3C[C@H](N)C[C@@H](F)C3)ccc12` [Example 616, (2-(7-(2-(1H-Imidazol-1-yl)ethoxy)-1-(cyclopropylmethyl)-1H-pyrrolo[2,3-c]pyridin-2-yl)-3-methylpyrazolo[1,5-a]pyridin-6-yl)((3R,5R)-3-amino-5-fluoropiperidin-1-yl)methanone]: the IC50 was 20 nM.
In the case of `Cc1c(-c2cc3ccnc(OCCn4ccnc4)c3n2CC2CC2)nn2cc(C(=O)N3CCC[C@@H](N)C3)ccc12` [Example 617, (R)-(2-(7-(2-(1H-lmidazol-1-yl)ethoxy)-1-(cyclopropylmethyl)-1H-pyrrolo[2,3-c]pyridin-2-yl)-3-methylpyrazolo[1,5-a]pyridin-6-yl)(3-aminopiperidin-1-yl)methanone] it was 10 nM; in that of `COc1cc(C(=O)N2C[C@H](N)C[C@@H](F)C2)cn2nc(-c3cc4ccnc(OCCn5cnnc5)c4n3C)c(C)c12` [Example 620, (2-(7-(2-(4H-1,2,4-Triazol-4-yl)ethoxy)-1-methyl-1H-pyrrolo[2,3-c]pyridin-2-yl)-4-methoxy-3-methylpyrazolo[1,5-a]pyridin-6-yl)((3R,5R)-3-amino-5-fluoropiperidin-1-yl)methanone], 450 nM.
In the case of `COc1cc(C(=O)N2C[C@H](N)C[C@@H](F)C2)cn2nc(-c3sc4cccc(-c5cnn(CCO)c5)c4c3CC3CC3)c(C)c12` [Example 621, ((3R,5R)-3-Amino-5-fluoropiperidin-1-yl)(2-(3-(cyclopropylmethyl)-4-(1-(2-hydroxyethyl)-1H-pyrazol-4-yl)benzo[b]thiophen-2-yl)-4-methoxy-3-methylpyrazolo[1,5-a]pyridin-6-yl)methanone] it was 140 nM.
